Assay: xn = mol fraction of the nth substance listed

Clc1cccc2ccccc12 + CCO
viscosity [mPa·s], 101.33 kPa
Details | x1 = 0.0773 | x1 = 0.2002 | x1 = 0.3006 | x1 = 0.3989 | x1 = 0.5008 | x1 = 0.5979 | x1 = 0.7026 | x1 = 0.8011 | x1 = 0.9009
298.15 K | 1.238 | 1.455 | 1.63 | 1.779 | 1.953 | 2.11 | 2.298 | 2.47 | 2.655
303.15 K | 1.119 | 1.314 | 1.471 | 1.606 | 1.757 | 1.89 | 2.045 | 2.214 | 2.389
308.15 K | 1.016 | 1.192 | 1.334 | 1.456 | 1.588 | 1.714 | 1.865 | 2.006 | 2.158

CCCCC(CC)CN (stereo not drawn) + COCCOCCOCCOC
viscosity [mPa·s], 101.33 kPa
Details | x2 = 0.0746 | x2 = 0.153 | x2 = 0.237 | x2 = 0.326 | x2 = 0.42 | x2 = 0.521 | x2 = 0.629 | x2 = 0.744 | x2 = 0.867
303.2 K | 1.02 | 1.05 | 1.13 | 1.19 | 1.25 | 1.32 | 1.39 | 1.54 | 1.64
313.2 K | 0.88 | 0.9 | 0.97 | 1.01 | 1.06 | 1.11 | 1.16 | 1.31 | 1.39

COCCOCCOCCOCCOC + CCOC(=O)OCC
298.15 K, 101.33 kPa
Details | viscosity [mPa·s]
x1 = 0.0049 | 0.752
x1 = 0.014 | 0.772
x1 = 0.0274 | 0.796
x1 = 0.044 | 0.824
x1 = 0.068 | 0.879
x1 = 0.0984 | 0.938
x1 = 0.1416 | 1.029
x1 = 0.2036 | 1.164
x1 = 0.2814 | 1.348
x1 = 0.3146 | 1.434
x1 = 0.3497 | 1.519
x1 = 0.3949 | 1.634
x1 = 0.4546 | 1.798
x1 = 0.5017 | 1.939
x1 = 0.5551 | 2.083
x1 = 0.5999 | 2.204
x1 = 0.6478 | 2.349
x1 = 0.691 | 2.478
x1 = 0.7376 | 2.614
x1 = 0.7849 | 2.76
x1 = 0.8377 | 2.915
x1 = 0.8758 | 3.028
x1 = 0.9345 | 3.218
x1 = 0.9719 | 3.328
x2 = 0.0132 | 3.378

CC1=CCC(=C(C)C)CC1 + Fc1ccccc1
viscosity [mPa·s], 101 kPa
Details | x1 = 0.062 | x1 = 0.1294 | x1 = 0.2031 | x1 = 0.2839 | x1 = 0.3729 | x1 = 0.4714 | x1 = 0.5811 | x1 = 0.704 | x1 = 0.8425
303.15 K | 0.563 | 0.61 | 0.661 | 0.715 | 0.771 | 0.824 | 0.87 | 0.912 | 0.951
308.15 K | 0.53 | 0.572 | 0.621 | 0.672 | 0.725 | 0.774 | 0.818 | 0.855 | 0.889
313.15 K | 0.498 | 0.536 | 0.582 | 0.631 | 0.681 | 0.727 | 0.767 | 0.8 | 0.831

CCCCn1cc[n+](C)c1.F[P-](F)(F)(F)(F)F + O
298.15 K, 101 kPa
Details | viscosity [mPa·s]
x2 = 0.0518 | 198
x2 = 0.2146 | 92.5

COC(C)(C)C + CC(C)O
101 kPa
Details | viscosity [mPa·s]
293.15 K, x1 = 0.0305 | 2.145
298.15 K, x1 = 0.0702 | 1.595
303.15 K, x1 = 0.0702 | 1.395
308.15 K, x1 = 0.0914 | 1.145
